# In PubChem BioAssay (NCI):
#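 Where inhibition never reached the appropriate level, the endpoint shown equals the highest concentration tested. Otherwise, values were interpolated linearly from a five-concentration, 48-hour dose response in 96-well plates. TGI denotes the concentration required for complete inhibition of growth.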
# Key:
# Experiment in all cases: NCI tumour cell line growth inhibition, 48 h
# A498 renal = tested on: A498 renal
# MALME-3M melanoma = tested on: MALME-3M melanoma
# SN12C renal = tested on: SN12C renal
# NCI-H226 lung = tested on: NCI-H226 lung
# SF-295 CNS = tested on: SF-295 CNS
# OVCAR-4 ovarian = tested on: OVCAR-4 ovarian
# RXF 393 renal = tested on: RXF 393 renal
# COLO 205 colon = tested on: COLO 205 colon
# CCRF-CEM leukemia = tested on: CCRF-CEM leukemia
# SK-MEL-5 melanoma = tested on: SK-MEL-5 melanoma
# HCT-15 colon = tested on: HCT-15 colon
# SK-MEL-2 melanoma = tested on: SK-MEL-2 melanoma
# KM20L2 colon = tested on: KM20L2 colon
# NCI-H23 lung = tested on: NCI-H23 lung
# U251 CNS = tested on: U251 CNS
# K-562 leukemia = tested on: K-562 leukemia
# KM12 colon = tested on: KM12 colon
# M14 melanoma = tested on: M14 melanoma
# HOP-62 NSCLC = tested on: HOP-62 NSCLC
# DMS 114 small cell lung = tested on: DMS 114 small cell lung
# UACC-257 melanoma = tested on: UACC-257 melanoma
# A549 NSCLC = tested on: A549 NSCLC
# M19-MEL melanoma = tested on: M19-MEL melanoma
# SNB-19 CNS = tested on: SNB-19 CNS
# OVCAR-5 ovarian = tested on: OVCAR-5 ovarian
# UO-31 renal = tested on: UO-31 renal
# HL-60(TB) leukemia = tested on: HL-60(TB) leukemia
# OVCAR-8 ovarian = tested on: OVCAR-8 ovarian
# LOX IMVI melanoma = tested on: LOX IMVI melanoma
# UACC-62 melanoma = tested on: UACC-62 melanoma
# HCC-2998 colon = tested on: HCC-2998 colon
# EKVX NSCLC = tested on: EKVX NSCLC
# HCT-116 colon = tested on: HCT-116 colon
# ACHN renal = tested on: ACHN renal
# LXFL 529 NSCLC = tested on: LXFL 529 NSCLC
# MOLT-4 leukemia = tested on: MOLT-4 leukemia
# 786-0 renal = tested on: 786-0 renal
# DMS 273 small cell lung = tested on: DMS 273 small cell lung
# HT29 colon = tested on: HT29 colon
# DLD-1 colon = tested on: DLD-1 colon
# SR leukemia = tested on: SR leukemia
# OVCAR-3 ovarian = tested on: OVCAR-3 ovarian
# SNB-75 CNS = tested on: SNB-75 CNS
# NCI-H460 lung = tested on: NCI-H460 lung
# SF-268 CNS = tested on: SF-268 CNS
# SK-OV-3 ovarian = tested on: SK-OV-3 ovarian
# NCI-H522 lung = tested on: NCI-H522 lung
# CAKI-1 renal = tested on: CAKI-1 renal
# HOP-18 NSCLC = tested on: HOP-18 NSCLC
# TK-10 renal = tested on: TK-10 renal
# SK-MEL-28 melanoma = tested on: SK-MEL-28 melanoma
# SW-620 colon = tested on: SW-620 colon
# IGROV1 ovarian = tested on: IGROV1 ovarian
# SF-539 CNS = tested on: SF-539 CNS
# SNB-78 CNS = tested on: SNB-78 CNS
# HOP-92 NSCLC = tested on: HOP-92 NSCLC
# RPMI-8226 leukemia = tested on: RPMI-8226 leukemia
# XF 498 CNS = tested on: XF 498 CNS
# RXF-631 renal = tested on: RXF-631 renal
smiles,measurement,setting,value
N#CC1CC2(C(=O)C1=O)c1ccccc1-c1ccccc12 (stereo not drawn),TGI,A498 renal,> 100 µM
same,TGI,MALME-3M melanoma,> 100 µM
same,TGI,SN12C renal,> 100 µM
same,TGI,NCI-H226 lung,> 100 µM
same,TGI,SF-295 CNS,> 100 µM
same,TGI,OVCAR-4 ovarian,> 100 µM
same,TGI,RXF 393 renal,> 100 µM
same,TGI,COLO 205 colon,> 100 µM
same,TGI,CCRF-CEM leukemia,> 100 µM
same,TGI,SK-MEL-5 melanoma,> 100 µM
same,TGI,HCT-15 colon,> 100 µM
same,TGI,SK-MEL-2 melanoma,> 100 µM
same,TGI,KM20L2 colon,> 100 µM
same,TGI,NCI-H23 lung,> 100 µM
same,TGI,U251 CNS,> 100 µM
same,TGI,K-562 leukemia,> 100 µM
same,TGI,KM12 colon,> 100 µM
same,TGI,M14 melanoma,> 100 µM
same,TGI,HOP-62 NSCLC,> 100 µM
same,TGI,DMS 114 small cell lung,> 100 µM
same,TGI,UACC-257 melanoma,> 100 µM
same,TGI,A549 NSCLC,> 100 µM
same,TGI,M19-MEL melanoma,> 100 µM
same,TGI,SNB-19 CNS,> 100 µM
same,TGI,OVCAR-5 ovarian,> 100 µM
same,TGI,UO-31 renal,> 100 µM
same,TGI,HL-60(TB) leukemia,> 100 µM
same,TGI,OVCAR-8 ovarian,> 100 µM
same,TGI,LOX IMVI melanoma,> 100 µM
same,TGI,UACC-62 melanoma,> 100 µM
same,TGI,HCC-2998 colon,> 100 µM
same,TGI,EKVX NSCLC,> 100 µM
same,TGI,HCT-116 colon,> 100 µM
same,TGI,ACHN renal,> 100 µM
same,TGI,LXFL 529 NSCLC,> 100 µM
same,TGI,MOLT-4 leukemia,> 100 µM
same,TGI,786-0 renal,> 100 µM
same,TGI,DMS 273 small cell lung,> 100 µM
same,TGI,HT29 colon,> 100 µM
same,TGI,DLD-1 colon,> 100 µM
same,TGI,SR leukemia,> 100 µM
same,TGI,OVCAR-3 ovarian,> 100 µM
same,TGI,SNB-75 CNS,> 100 µM
same,TGI,NCI-H460 lung,> 100 µM
same,TGI,SF-268 CNS,> 100 µM
same,TGI,SK-OV-3 ovarian,> 100 µM
same,TGI,NCI-H522 lung,> 100 µM
same,TGI,CAKI-1 renal,> 100 µM
same,TGI,HOP-18 NSCLC,> 100 µM
same,TGI,TK-10 renal,> 100 µM
same,TGI,SK-MEL-28 melanoma,> 100 µM
same,TGI,SW-620 colon,> 100 µM
same,TGI,IGROV1 ovarian,> 100 µM
Oc1ccccc1-c1n[nH]c(=S)n1/N=C/c1ccc(-c2ccc(Br)cc2)o1,TGI,NCI-H226 lung,52.2 µM
same,TGI,SF-295 CNS,> 100 µM
same,TGI,OVCAR-4 ovarian,50.5 µM
same,TGI,COLO 205 colon,> 100 µM
same,TGI,SF-539 CNS,> 100 µM
same,TGI,KM20L2 colon,> 100 µM
same,TGI,NCI-H23 lung,43.1 µM
same,TGI,U251 CNS,56.5 µM
same,TGI,SNB-78 CNS,75.2 µM
same,TGI,K-562 leukemia,> 100 µM
same,TGI,KM12 colon,> 100 µM
same,TGI,M14 melanoma,> 100 µM
same,TGI,HOP-62 NSCLC,> 100 µM
same,TGI,UACC-257 melanoma,59.6 µM
same,TGI,A549 NSCLC,> 100 µM
same,TGI,M19-MEL melanoma,> 100 µM
same,TGI,SNB-19 CNS,56.1 µM
same,TGI,OVCAR-5 ovarian,> 100 µM
same,TGI,UO-31 renal,66.2 µM
same,TGI,OVCAR-8 ovarian,90.1 µM
same,TGI,LOX IMVI melanoma,56.7 µM
same,TGI,UACC-62 melanoma,40.3 µM
same,TGI,HCT-116 colon,> 100 µM
same,TGI,ACHN renal,92 µM
same,TGI,LXFL 529 NSCLC,71.4 µM
same,TGI,MOLT-4 leukemia,> 100 µM
same,TGI,786-0 renal,> 100 µM
same,TGI,HT29 colon,> 100 µM
same,TGI,DLD-1 colon,> 100 µM
same,TGI,OVCAR-3 ovarian,80.5 µM
same,TGI,SNB-75 CNS,> 100 µM
same,TGI,NCI-H460 lung,> 100 µM
same,TGI,SF-268 CNS,> 100 µM
same,TGI,SK-OV-3 ovarian,95.1 µM
same,TGI,NCI-H522 lung,> 100 µM
same,TGI,TK-10 renal,51.1 µM
same,TGI,SK-MEL-28 melanoma,> 100 µM
same,TGI,SW-620 colon,> 100 µM
same,TGI,IGROV1 ovarian,92.6 µM
same,TGI,HOP-92 NSCLC,47.8 µM
c1ccc(COC2(OCc3ccccc3)CC3OC2C2NN=NC32)cc1 (stereo not drawn),TGI,A498 renal,> 100 µM
same,TGI,MALME-3M melanoma,52.6 µM
same,TGI,SN12C renal,> 10 µM
same,TGI,RPMI-8226 leukemia,41.9 µM
same,TGI,NCI-H226 lung,39.3 µM
same,TGI,SF-295 CNS,62.4 µM
same,TGI,OVCAR-4 ovarian,36.4 µM
same,TGI,RXF 393 renal,> 100 µM
same,TGI,COLO 205 colon,> 100 µM
same,TGI,CCRF-CEM leukemia,33.1 µM
same,TGI,SK-MEL-5 melanoma,32.3 µM
same,TGI,HCT-15 colon,90.6 µM
same,TGI,SK-MEL-2 melanoma,> 10 µM
same,TGI,SF-539 CNS,43.5 µM
same,TGI,KM20L2 colon,> 100 µM
same,TGI,NCI-H23 lung,34.3 µM
same,TGI,U251 CNS,32.6 µM
same,TGI,SNB-78 CNS,86.3 µM
same,TGI,K-562 leukemia,38.6 µM
same,TGI,KM12 colon,80.7 µM
same,TGI,M14 melanoma,39.4 µM
same,TGI,HOP-62 NSCLC,> 100 µM
same,TGI,UACC-257 melanoma,36.2 µM
same,TGI,A549 NSCLC,> 100 µM
same,TGI,M19-MEL melanoma,32.2 µM
same,TGI,OVCAR-5 ovarian,> 100 µM
same,TGI,UO-31 renal,99.2 µM
same,TGI,HL-60(TB) leukemia,33.7 µM
same,TGI,LOX IMVI melanoma,36.5 µM
same,TGI,UACC-62 melanoma,46.6 µM
same,TGI,HCC-2998 colon,> 10 µM
same,TGI,ACHN renal,> 100 µM
same,TGI,LXFL 529 NSCLC,29.3 µM
same,TGI,MOLT-4 leukemia,37.9 µM
same,TGI,786-0 renal,34.8 µM
same,TGI,DMS 273 small cell lung,53.4 µM
same,TGI,HT29 colon,46.5 µM
same,TGI,DLD-1 colon,31.3 µM
same,TGI,OVCAR-3 ovarian,33.8 µM
same,TGI,SNB-75 CNS,42.3 µM
same,TGI,NCI-H460 lung,> 100 µM
same,TGI,SF-268 CNS,51 µM
same,TGI,SK-OV-3 ovarian,> 100 µM
same,TGI,CAKI-1 renal,> 100 µM
same,TGI,HOP-18 NSCLC,92.9 µM
same,TGI,SK-MEL-28 melanoma,35.4 µM
same,TGI,SW-620 colon,33.6 µM
same,TGI,IGROV1 ovarian,76.3 µM
same,TGI,HOP-92 NSCLC,40.8 µM
same,TGI,XF 498 CNS,35 µM
O=C(c1ccc(Cl)cc1)c1ccc(OCCSCCCCCCCCCCSCCOc2ccc(C(=O)c3ccc(Cl)cc3)cc2)cc1,TGI,A498 renal,> 100 µM
same,TGI,MALME-3M melanoma,> 100 µM
same,TGI,SN12C renal,> 100 µM
same,TGI,RPMI-8226 leukemia,> 100 µM
same,TGI,NCI-H226 lung,> 100 µM
same,TGI,SF-295 CNS,> 100 µM
same,TGI,RXF 393 renal,> 100 µM
same,TGI,COLO 205 colon,> 100 µM
same,TGI,CCRF-CEM leukemia,> 100 µM
same,TGI,SK-MEL-5 melanoma,> 100 µM
same,TGI,HCT-15 colon,> 100 µM
same,TGI,SK-MEL-2 melanoma,> 100 µM
same,TGI,KM20L2 colon,> 100 µM
same,TGI,NCI-H23 lung,> 100 µM
same,TGI,U251 CNS,> 100 µM
same,TGI,SNB-78 CNS,> 100 µM
same,TGI,K-562 leukemia,> 100 µM
same,TGI,KM12 colon,> 100 µM
same,TGI,HOP-62 NSCLC,> 100 µM
same,TGI,UACC-257 melanoma,> 100 µM
same,TGI,A549 NSCLC,> 100 µM
same,TGI,M19-MEL melanoma,> 100 µM
same,TGI,SNB-19 CNS,> 100 µM
same,TGI,OVCAR-5 ovarian,> 100 µM
same,TGI,UO-31 renal,> 100 µM
same,TGI,HL-60(TB) leukemia,> 100 µM
same,TGI,OVCAR-8 ovarian,> 100 µM
same,TGI,LOX IMVI melanoma,> 100 µM
same,TGI,RXF-631 renal,> 100 µM
same,TGI,UACC-62 melanoma,> 100 µM
same,TGI,HCC-2998 colon,> 100 µM
same,TGI,EKVX NSCLC,> 100 µM
same,TGI,ACHN renal,> 100 µM
same,TGI,MOLT-4 leukemia,> 100 µM
same,TGI,786-0 renal,> 100 µM
same,TGI,DMS 273 small cell lung,> 100 µM
same,TGI,HT29 colon,> 100 µM
same,TGI,DLD-1 colon,> 100 µM
same,TGI,OVCAR-3 ovarian,> 100 µM
same,TGI,SNB-75 CNS,> 100 µM
same,TGI,NCI-H460 lung,> 100 µM
same,TGI,SF-268 CNS,> 100 µM
same,TGI,SK-OV-3 ovarian,> 100 µM
same,TGI,NCI-H522 lung,> 100 µM
same,TGI,CAKI-1 renal,> 100 µM
same,TGI,TK-10 renal,> 100 µM
same,TGI,SK-MEL-28 melanoma,> 100 µM
same,TGI,SW-620 colon,> 100 µM
same,TGI,IGROV1 ovarian,> 100 µM
same,TGI,HOP-92 NSCLC,> 100 µM
